Measurements from PubChem BioAssay (NCI).
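Cultured in 96-well plates, cells were exposed to test compound for 48 hours across five concentrations. GI50 = concentration required for 50% inhibition of growth. TGI marks complete inhibition of growth.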

Experiments:
Assay in all cases: growth of human tumour cells (NCI), 48 h
PC-3 prostate = tested on: PC-3 prostate
SNB-19 CNS = tested on: SNB-19 CNS
SF-268 CNS = tested on: SF-268 CNS
OVCAR-8 ovarian = tested on: OVCAR-8 ovarian
HT29 colon = tested on: HT29 colon
SR leukemia = tested on: SR leukemia
OVCAR-4 ovarian = tested on: OVCAR-4 ovarian
U251 CNS = tested on: U251 CNS
IGROV1 ovarian = tested on: IGROV1 ovarian
SNB-75 CNS = tested on: SNB-75 CNS
SF-295 CNS = tested on: SF-295 CNS
MDA-MB-231 breast = tested on: MDA-MB-231 breast
SK-OV-3 ovarian = tested on: SK-OV-3 ovarian
SW-620 colon = tested on: SW-620 colon
MDA-MB-435 = tested on: MDA-MB-435
HCC-2998 colon = tested on: HCC-2998 colon
SN12C renal = tested on: SN12C renal
HOP-92 NSCLC = tested on: HOP-92 NSCLC
OVCAR-5 ovarian = tested on: OVCAR-5 ovarian
NCI-H226 lung = tested on: NCI-H226 lung
NCI-H522 lung = tested on: NCI-H522 lung
BT-549 breast = tested on: BT-549 breast
M14 melanoma = tested on: M14 melanoma
DU-145 prostate = tested on: DU-145 prostate
RPMI-8226 leukemia = tested on: RPMI-8226 leukemia
MCF7 breast = tested on: MCF7 breast
UO-31 renal = tested on: UO-31 renal
UACC-62 melanoma = tested on: UACC-62 melanoma
KM12 colon = tested on: KM12 colon
NCI/ADR-RES ovarian = tested on: NCI/ADR-RES ovarian
SF-539 CNS = tested on: SF-539 CNS
786-0 renal = tested on: 786-0 renal
LOX IMVI melanoma = tested on: LOX IMVI melanoma
SK-MEL-2 melanoma = tested on: SK-MEL-2 melanoma
T-47D breast = tested on: T-47D breast
A549 NSCLC = tested on: A549 NSCLC
MALME-3M melanoma = tested on: MALME-3M melanoma
CAKI-1 renal = tested on: CAKI-1 renal
ACHN renal = tested on: ACHN renal
A498 renal = tested on: A498 renal
HL-60(TB) leukemia = tested on: HL-60(TB) leukemia
HCT-116 colon = tested on: HCT-116 colon
TK-10 renal = tested on: TK-10 renal
HOP-62 NSCLC = tested on: HOP-62 NSCLC
OVCAR-3 ovarian = tested on: OVCAR-3 ovarian
CCRF-CEM leukemia = tested on: CCRF-CEM leukemia
NCI-H23 lung = tested on: NCI-H23 lung
UACC-257 melanoma = tested on: UACC-257 melanoma
HS 578T breast = tested on: HS 578T breast
K-562 leukemia = tested on: K-562 leukemia
SK-MEL-28 melanoma = tested on: SK-MEL-28 melanoma
SK-MEL-5 melanoma = tested on: SK-MEL-5 melanoma
COLO 205 colon = tested on: COLO 205 colon
HCT-15 colon = tested on: HCT-15 colon
NCI-H460 lung = tested on: NCI-H460 lung
EKVX NSCLC = tested on: EKVX NSCLC
MOLT-4 leukemia = tested on: MOLT-4 leukemia

## CC(=O)Nc1nc(C)c(-c2csc(Nc3ccccc3)n2)s1
PC-3 prostate
  GI50: 3 µM
  TGI: 23.5 µM
SNB-19 CNS
  GI50: 8.09 µM
  TGI: 20.6 µM
SF-268 CNS
  GI50: 5.4 µM
  TGI: 19.3 µM
OVCAR-8 ovarian
  GI50: 6.81 µM
  TGI: 20.5 µM
HT29 colon
  GI50: 3.89 µM
  TGI: 21.8 µM
SR leukemia
  GI50: 2.37 µM
  TGI: > 100 µM
OVCAR-4 ovarian
  GI50: 6.5 µM
  TGI: 26.6 µM
U251 CNS
  GI50: 3.39 µM
  TGI: 20.8 µM
IGROV1 ovarian
  GI50: 2.14 µM
  TGI: 7.72 µM
SNB-75 CNS
  GI50: 4.31 µM
  TGI: 18.1 µM
SF-295 CNS
  GI50: 2.32 µM
  TGI: 13 µM
MDA-MB-231 breast
  GI50: 6.59 µM
  TGI: 21.2 µM
SK-OV-3 ovarian
  GI50: 3.43 µM
  TGI: 42.8 µM
SW-620 colon
  GI50: 9.82 µM
  TGI: 23.1 µM
MDA-MB-435
  GI50: 6.07 µM
  TGI: 19.7 µM
HCC-2998 colon
  GI50: 8.83 µM
  TGI: 21.4 µM
SN12C renal
  GI50: 3.6 µM
  TGI: 16.3 µM
HOP-92 NSCLC
  GI50: 1.57 µM
  TGI: 8.28 µM
OVCAR-5 ovarian
  GI50: 5.32 µM
  TGI: 20.6 µM
NCI-H226 lung
  GI50: 3.12 µM
  TGI: 15.4 µM
NCI-H522 lung
  GI50: 6.46 µM
  TGI: 22.9 µM
BT-549 breast
  GI50: 2.06 µM
  TGI: 8.76 µM
M14 melanoma
  GI50: 3.55 µM
  TGI: 16.4 µM
DU-145 prostate
  GI50: 5.23 µM
  TGI: 17.5 µM
RPMI-8226 leukemia
  GI50: 3.57 µM
  TGI: 31.7 µM
MCF7 breast
  GI50: 2.16 µM
  TGI: 12 µM
UO-31 renal
  GI50: 2.55 µM
  TGI: 12.9 µM
UACC-62 melanoma
  GI50: 2.34 µM
  TGI: 12.6 µM
KM12 colon
  GI50: 5.6 µM
  TGI: 19.6 µM
NCI/ADR-RES ovarian
  GI50: 5.16 µM
  TGI: 23.2 µM
SF-539 CNS
  GI50: 4.07 µM
  TGI: 15.5 µM
786-0 renal
  GI50: 3.25 µM
  TGI: 16.1 µM
LOX IMVI melanoma
  GI50: 3.97 µM
  TGI: 17 µM
SK-MEL-2 melanoma
  GI50: 10.7 µM
  TGI: 24.4 µM
T-47D breast
  GI50: 1.21 µM
  TGI: 6.55 µM
A549 NSCLC
  GI50: 6.39 µM
  TGI: 27 µM
MALME-3M melanoma
  GI50: 2.12 µM
  TGI: 11.7 µM
CAKI-1 renal
  GI50: 4.15 µM
  TGI: 16.1 µM
ACHN renal
  GI50: 4.25 µM
  TGI: 15.9 µM
A498 renal
  GI50: 1.49 µM
  TGI: 7.87 µM
HL-60(TB) leukemia
  GI50: 10.5 µM
  TGI: 33.9 µM
HCT-116 colon
  GI50: 3.76 µM
  TGI: 24.3 µM
TK-10 renal
  GI50: 8.6 µM
  TGI: 24 µM
HOP-62 NSCLC
  GI50: 6.55 µM
  TGI: 21.5 µM
OVCAR-3 ovarian
  GI50: 4.01 µM
  TGI: 15.7 µM
CCRF-CEM leukemia
  GI50: 4.11 µM
  TGI: 82 µM
NCI-H23 lung
  GI50: 4.96 µM
  TGI: 20.7 µM
UACC-257 melanoma
  GI50: 10.9 µM
  TGI: 23.6 µM
HS 578T breast
  GI50: 2.35 µM
  TGI: 8.06 µM
K-562 leukemia
  GI50: 3.68 µM
  TGI: > 100 µM
SK-MEL-28 melanoma
  GI50: 4.13 µM
  TGI: 17.2 µM
SK-MEL-5 melanoma
  GI50: 4.31 µM
  TGI: 16.2 µM
COLO 205 colon
  GI50: 7.66 µM
  TGI: 26.8 µM
HCT-15 colon
  GI50: 1.96 µM
  TGI: 13.5 µM
NCI-H460 lung
  GI50: 3.38 µM
  TGI: 14.1 µM
EKVX NSCLC
  GI50: 2.94 µM
  TGI: 13.6 µM
MOLT-4 leukemia
  GI50: 3.92 µM
  TGI: 28.6 µM
